Test results as given in ChEMBL document CHEMBL2203251, “Discovery of two clinical histamine H(3) receptor antagonists: trans-N-ethyl-3-fluoro-3-[3-fluoro-4-(pyrrolidinylmethyl)phenyl]cyclobutanecarboxamide (PF-03654746) and trans-3-fluoro-3-[3-fluoro-4-(pyrrolidin-1-ylmethyl)phenyl]-N-(2-methylpropyl)cyclobutanecarboxamide (PF-03654764)” (J Med Chem, 2011).
Values joined by “and” are separate entries in the source; they are usually repeats but may differ in a detail not shown here. Equal values may be shown once.

What was measured:
Histamine H3 receptor [1] = target: T1, Histamine H3 receptor (Rattus norvegicus, UniProt Q9QYN8)
T1 sequence (Q9QYN8 whole entry): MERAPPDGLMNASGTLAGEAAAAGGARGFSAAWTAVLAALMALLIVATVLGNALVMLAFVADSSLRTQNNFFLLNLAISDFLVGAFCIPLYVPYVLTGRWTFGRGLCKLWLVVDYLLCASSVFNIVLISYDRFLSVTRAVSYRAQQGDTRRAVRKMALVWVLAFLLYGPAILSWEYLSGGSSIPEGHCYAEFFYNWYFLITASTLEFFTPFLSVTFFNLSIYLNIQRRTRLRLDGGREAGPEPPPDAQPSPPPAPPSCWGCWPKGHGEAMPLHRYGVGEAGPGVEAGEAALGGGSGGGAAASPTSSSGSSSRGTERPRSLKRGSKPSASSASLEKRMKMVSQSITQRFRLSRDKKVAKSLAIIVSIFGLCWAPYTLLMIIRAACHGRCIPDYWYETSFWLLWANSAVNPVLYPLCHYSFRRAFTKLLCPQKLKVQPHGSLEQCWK
Description: Displacement of [3H]-n-alpha-methylhistamine from rat histamine H3 receptor homogenate after 60 mins by scintillation counting

MDR1 (human) = assay: in vitro; conditions: dog, MDCK-MDR1
Description: Efflux ratio of permeability across basal to apical side over apical to basolateral side in dog MDCK cells expressing human MDR1

Histamine H3 receptor [2] = target: T1, Histamine H3 receptor; remark: listed apart in the source
Description: Antagonist activity at rat histamine H3 receptor expressed in human HEK293 cells assessed as inhibition of forskolin-induced cAMP release pretreated 10 mins prior forskolin stimulation measured after 4.5 hrs by spectrofluorimetric analysis

in vivo [3] = conditions: Sprague-Dawley, rat, plasma, po
Description: AUC (0 to 24 hrs) in po dosed Sprague-Dawley rat administered for 14 days

Histamine H3 receptor [4] = target: T2, Histamine H3 receptor (Homo sapiens, UniProt Q9Y5N1)
T2 sequence (Q9Y5N1 whole entry): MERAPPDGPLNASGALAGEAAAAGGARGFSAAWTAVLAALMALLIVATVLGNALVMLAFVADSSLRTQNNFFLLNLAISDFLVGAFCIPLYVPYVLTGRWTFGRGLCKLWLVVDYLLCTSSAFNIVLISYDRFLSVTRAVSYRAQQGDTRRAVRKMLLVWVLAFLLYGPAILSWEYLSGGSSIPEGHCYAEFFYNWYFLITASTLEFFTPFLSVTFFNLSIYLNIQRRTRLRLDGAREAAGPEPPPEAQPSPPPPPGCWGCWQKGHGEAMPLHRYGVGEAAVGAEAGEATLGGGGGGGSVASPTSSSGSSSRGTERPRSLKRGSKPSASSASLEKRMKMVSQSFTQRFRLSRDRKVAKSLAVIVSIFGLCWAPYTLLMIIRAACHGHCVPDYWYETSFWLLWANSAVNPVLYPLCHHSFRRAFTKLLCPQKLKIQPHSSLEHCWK
Description: Displacement of [3H]-n-alpha-methylhistamine from human histamine H3 receptor homogenate after 60 mins by scintillation counting

in vivo [5] = conditions: Sprague-Dawley, rat, po
Description: Tmax in po dosed Sprague-Dawley rat administered for 4 days

in vivo [6] = conditions: Sprague-Dawley, rat, po; remark: listed apart in the source
Description: Oral bioavailability in Sprague-Dawley rat

Histamine H3 receptor [7] = target: T2, Histamine H3 receptor; remark: listed apart in the source
Description: Antagonist activity at human histamine H3 receptor expressed in human HEK293 cells assessed as inhibition of forskolin-induced cAMP release pretreated 10 mins prior forskolin stimulation measured after 4.5 hrs by spectrofluorimetric analysis

in vitro [8] = conditions: human, liver microsomes
Description: Half life in human liver microsomes

in vivo [9] = conditions: Sprague-Dawley, rat, po; remark: listed apart in the source
Description: Toxicity in po dosed Sprague-Dawley rat administered for 14 days

Homo sapiens [10] = species: Homo sapiens; assay: Selectivity ratio of Ki for human histamine H2 receptor to Ki for human histamine H3 receptor
in vivo [11] = conditions: Sprague-Dawley, rat, po; remark: listed apart in the source
Description: Tmax in po dosed Sprague-Dawley rat administered for 14 days

Homo sapiens [12] = species: Homo sapiens; assay: Selectivity ratio of Ki for human histamine H4 receptor to Ki for human histamine H3 receptor
Homo sapiens [13] = species: Homo sapiens; assay: Selectivity ratio of Ki for human histamine H1 receptor to Ki for human histamine H3 receptor
Liver microsomes = conditions: human
Description: Unbound intrinsic clearance in human liver microsomes

in vitro [14] = conditions: rat, plasma
Description: Fraction unbound in rat plasma

in vivo [15] = conditions: beagle, dog, po
Description: Cmax in po dosed beagle dog administered for 7 days

in vivo [16] = conditions: beagle, dog, plasma, po
Description: AUC (0 to 24 hrs) in po dosed beagle dog administered for 7 days

in vitro [17] = conditions: human, Caco-2
Description: Permeability across apical to basolateral side in human Caco2 cells at 2 uM

in vivo [18] = conditions: Sprague-Dawley, rat, po; remark: listed apart in the source
Description: Cmax in po dosed Sprague-Dawley rat administered for 14 days

in vivo [19] = conditions: beagle, dog, po; remark: listed apart in the source
Description: Tmax in po dosed beagle dog administered for 7 days

in vivo [20] = conditions: beagle, dog, po; remark: listed apart in the source
Description: Toxicity in po dosed beagle dog administered for 7 days

in vitro [21] = conditions: human, plasma
Description: Fraction unbound in human plasma

Rattus norvegicus [22] = assay: Toxicity in Sprague-Dawley rat assessed as compound-induced phospholipidosis in liver at >= 50 mg/kg, po administered for 14 days; assay type: organism-based; set-up: dose 50 mg/kg, route oral; conditions: in vivo, 336 h
[23] = human, thle, 24 h
Description: Toxicity in human THLE cells assessed as drug-induced phospholipid accumulation after 24 hrs by Hoechst staining-based microscopic analysis

[24] = AUC in Sprague-Dawley rat at >[…] mg/kg, po administered for 14 days measured on day 1; assay type: ADME, organism-based; conditions: plasma, 50 mg/kg
Rattus norvegicus [25] = assay: Toxicity in Sprague-Dawley rat assessed as compound-induced phospholipidosis in lung at >= 50 mg/kg, po administered for 14 days; assay type: organism-based; set-up: dose 50 mg/kg, route oral; conditions: in vivo, 336 h
[26] = AUC in Sprague-Dawley rat at 5 mg/kg, po administered for 4 days; assay type: ADME, organism-based; set-up: dose 5 mg/kg, route oral; conditions: plasma
[27] = Genotoxicity in micronucleus
[28] = Cmax in po dosed Sprague-Dawley rat administered for 4 days; assay type: ADME, organism-based; set-up: route oral; conditions: in vivo
Rattus norvegicus [29] = assay: Toxicity in Sprague-Dawley rat assessed as mortality at 400 mg/kg, po administered for 4 days; assay type: organism-based; set-up: dose 400 mg/kg, route oral; conditions: in vivo, 96 h
[30] = Apparent permeability across apical to basolateral side in MDCK cells at 2 uM; assay type: ADME, cell-based, Canis lupus familiaris; conditions: dog
Rattus norvegicus [31] = assay: Toxicity in Sprague-Dawley rat assessed as compound-induced phospholipidosis in lung at >= 50 mg/kg, po administered for 4 days; assay type: organism-based; set-up: dose 50 mg/kg, route oral; conditions: in vivo, 96 h
[32] = target: Voltage-gated inwardly rectifying potassium channel KCNH2 (Homo sapiens, UniProt Q12809); assay: Inhibition of human Erg expressed in human HEK293 cells; assay type: cell-based
Voltage-gated inwardly rectifying potassium channel KCNH2, sequence (Q12809 whole entry): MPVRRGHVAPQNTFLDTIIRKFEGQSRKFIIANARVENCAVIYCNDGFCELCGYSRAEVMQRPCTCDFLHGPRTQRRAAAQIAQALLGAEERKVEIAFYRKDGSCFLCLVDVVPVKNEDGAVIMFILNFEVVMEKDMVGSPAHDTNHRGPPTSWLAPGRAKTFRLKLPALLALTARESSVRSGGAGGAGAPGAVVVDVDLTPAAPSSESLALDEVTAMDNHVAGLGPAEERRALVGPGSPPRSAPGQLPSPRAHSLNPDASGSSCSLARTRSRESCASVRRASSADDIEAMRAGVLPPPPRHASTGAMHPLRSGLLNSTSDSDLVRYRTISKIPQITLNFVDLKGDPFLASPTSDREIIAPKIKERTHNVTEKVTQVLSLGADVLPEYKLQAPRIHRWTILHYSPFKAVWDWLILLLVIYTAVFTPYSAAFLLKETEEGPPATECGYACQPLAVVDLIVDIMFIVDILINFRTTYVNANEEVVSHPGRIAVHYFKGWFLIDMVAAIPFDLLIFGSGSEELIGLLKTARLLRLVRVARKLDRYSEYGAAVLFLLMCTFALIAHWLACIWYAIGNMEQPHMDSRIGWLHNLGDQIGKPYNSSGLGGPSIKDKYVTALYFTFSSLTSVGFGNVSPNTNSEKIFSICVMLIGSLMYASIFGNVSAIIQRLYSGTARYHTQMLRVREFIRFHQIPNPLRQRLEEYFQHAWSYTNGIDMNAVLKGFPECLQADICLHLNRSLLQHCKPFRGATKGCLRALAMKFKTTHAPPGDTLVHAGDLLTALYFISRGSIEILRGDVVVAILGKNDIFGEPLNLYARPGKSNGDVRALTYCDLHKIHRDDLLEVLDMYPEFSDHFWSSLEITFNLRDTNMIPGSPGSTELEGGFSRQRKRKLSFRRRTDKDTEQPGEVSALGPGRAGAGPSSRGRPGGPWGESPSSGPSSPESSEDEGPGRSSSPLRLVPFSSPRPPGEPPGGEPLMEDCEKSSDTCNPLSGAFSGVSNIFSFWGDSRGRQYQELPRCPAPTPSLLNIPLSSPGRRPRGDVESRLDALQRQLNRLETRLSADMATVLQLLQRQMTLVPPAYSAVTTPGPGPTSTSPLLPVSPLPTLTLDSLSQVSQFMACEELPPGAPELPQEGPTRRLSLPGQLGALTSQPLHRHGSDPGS

[33] = AUC in Sprague-Dawley rat at >[…] mg/kg, po administered for 4 days; assay type: ADME, organism-based; conditions: plasma, 50 mg/kg
[34] = AUC (0 to 24 hrs) in po dosed Sprague-Dawley rat administered for 4 days; assay type: ADME, organism-based; set-up: time < 24 hr, route oral; conditions: plasma
Rattus norvegicus [35] = assay: Toxicity in Sprague-Dawley rat assessed as compound-induced phospholipidosis in kidney at >= 50 mg/kg, po administered for 4 days; assay type: organism-based; set-up: dose 50 mg/kg, route oral; conditions: in vivo, 96 h
[36] = Cmax in Sprague-Dawley rat at 400 mg/kg, po administered for 4 days; assay type: ADME, organism-based; set-up: dose 400 mg/kg, route oral; conditions: in vivo
Rattus norvegicus [37] = assay: Toxicity in Sprague-Dawley rat assessed as compound-induced phospholipidosis at 5 to 30 mg/kg, po administered for 14 days; assay type: organism-based; set-up: dose 5-30 mg/kg, route oral; conditions: in vivo, 336 h
Canis familiaris [38] = assay: Toxicity in beagle dog assessed as compound-induced cadiomyocyte vacuole formation at 10 mg/kg, po administered for 7 days; assay type: organism-based, Canis lupus familiaris; set-up: dose 10 mg/kg, route oral; conditions: in vivo, 168 h
Rattus norvegicus [39] = assay: Toxicity in Sprague-Dawley rat assessed as compound-induced phospholipidosis at 30 mg/kg, po administered for 14 days; assay type: organism-based; set-up: dose 30 mg/kg, route oral; conditions: in vivo, 336 h
[40] = Toxicity in po dosed Sprague-Dawley rat administered for 4 days; assay type: organism-based; conditions: in vivo
Canis familiaris [41] = assay: Toxicity in beagle dog assessed as compound-induced cadiomyocyte vacuole formation at 25 mg/kg, po administered for 7 days; assay type: organism-based, Canis lupus familiaris; set-up: dose 25 mg/kg, route oral; conditions: in vivo, 168 h
Canis familiaris [42] = assay: Toxicity in beagle dog assessed as testicular degradation at 30 mg/kg, po administered for 7 days; assay type: organism-based, Canis lupus familiaris; set-up: dose 30 mg/kg, route oral; conditions: in vivo, 168 h
Canis familiaris [43] = assay: Toxicity in beagle dog assessed as compound-induced cadiomyocyte vacuole formation at 30 mg/kg, po administered for 7 days; assay type: organism-based, Canis lupus familiaris; set-up: dose 30 mg/kg, route oral; conditions: in vivo, 168 h
[44] = AUC in Sprague-Dawley rat at 10 to 300 mg/kg, po administered for 14 days measured on day 1; assay type: ADME, organism-based; set-up: dose 10-300 mg/kg, route oral; conditions: plasma
in vivo [45] = conditions: beagle, dog, po, 50 mg/kg
Canis familiaris [46] = assay: Toxicity in beagle dog assessed as convulsion at 50 mg/kg, po administered for 7 days measured on day 2; assay type: organism-based, Canis lupus familiaris; set-up: dose 50 mg/kg, route oral; conditions: in vivo, 168 h
[47] = AUC in beagle dog at 30 mg/kg, po administered for 7 days; assay type: ADME, organism-based, Canis lupus familiaris; set-up: dose 30 mg/kg, route oral; conditions: plasma
[48] = AUC in beagle dog at 50 mg/kg, po administered for 7 days measured on day 1; assay type: ADME, organism-based, Canis lupus familiaris; set-up: dose 50 mg/kg, route oral; conditions: plasma
[49] = AUC in Sprague-Dawley rat at 300 mg/kg, po administered for 14 days; assay type: ADME, organism-based; set-up: dose 300 mg/kg, route oral; conditions: plasma
Rattus norvegicus [50] = assay: Toxicity in Sprague-Dawley rat assessed as decrease in body weight at 300 mg/kg, po administered for 14 days; assay type: organism-based; set-up: dose 300 mg/kg, route oral; conditions: in vivo, 336 h
Rattus norvegicus [51] = assay: Toxicity in Sprague-Dawley rat assessed as decrease in food intake at 300 mg/kg, po administered for 14 days; assay type: organism-based; set-up: dose 300 mg/kg, route oral; conditions: in vivo, 336 h
[52] = Ratio of drug uptake in brain to plasma of Sprague-Dawley rat; assay type: ADME; conditions: read-out: BPR
Canis familiaris [53] = assay: Toxicity in beagle dog assessed as convulsion at 30 mg/kg, po administered for 7 days measured on day 3; assay type: organism-based, Canis lupus familiaris; set-up: dose 30 mg/kg, route oral; conditions: in vivo, 168 h
Rattus norvegicus [54] = assay: Toxicity in Sprague-Dawley rat assessed as salivation at >= 100 mg/kg, po administered for 14 days; assay type: organism-based; set-up: dose 100 mg/kg, route oral; conditions: in vivo, 336 h

Description for physchem: Dissociation constant, pKa of the compound

SMILES | Ki (Histamine H3 receptor [1]) [nM] | efflux ratio (MDR1 (human)) | Ki (Histamine H3 receptor [2]) [nM] | AUC at 24 h (in vivo [3]) [ng·h/mL] | Ki (Histamine H3 receptor [4]) | Tmax at 96 h (in vivo [5]) [min] | Ki (Histamine H3 receptor [7]) | half-life (in vitro [8]) [min] | pKa (physchem) | MTD at 336 h (in vivo [9]) [mg/kg] | Tmax at 336 h (in vivo [11]) [min] | CL free (Liver microsomes) [mL/min/kg] | fraction unbound (in vitro [14]) | Cmax at 168 h (in vivo [15]) [µM] | AUC at 24 h (in vivo [16]) [ng·h/mL] | Papp A→B at 2 µM (in vitro [17]) [×10⁻⁶ cm/s] | Cmax at 336 h (in vivo [18]) [µM] | Tmax at 168 h (in vivo [19]) [min] | MTD at 168 h (in vivo [20]) [mg/kg] | fraction unbound (in vitro [21]) | also measured
CC(C)CNC(=O)[C@H]1C[C@@](F)(c2ccc(CN3CCCC3)c(F)c2)C1 [PF-03654764] | 19 | 0.96 | 7.9 | 67400 | 1.4 nM | 30 | 1.2 nM and 1.05 nM | > 120 | 9.2 | ≥ 300 | 30 | < 5 | 0.56 | 18 | 18200 | 38.8 | 23 | 30 | ≥ 15 | 0.34 | bioavailability (in vivo [6]): 20.2%; Ratio Ki (Homo sapiens [10]): > 1000; Ratio Ki (Homo sapiens [12]): > 1000; Ratio Ki (Homo sapiens [13]): > 1000
CN(C)Cc1ccc(-c2ccc(CN(C)C)cc2)cc1 | 9.3 |  |  |  | 1.3 nM |  |  |  |  |  |  | 219 |  |  |  |  |  |  |  |  | 
c1cnc(OC[C@H]2C[C@H](c3ccc(CN4CCCC4)cc3)C2)nc1 | 82 | 0.9 | 79 | 1280 | 8.7 nM | 30 | 12 nM | > 120 | 9.8 | ≥ 5 | 30 | < 8 | 0.47 |  |  | 32.5 | 0.402 | 30 |  | 0.44 | Activity (Rattus norvegicus [22]): Toxic; MED [23]: 119.5 µM; AUC at 336 h [24]: 21300 ng·h/mL; Activity (Rattus norvegicus [25]): Toxic
c1cc([C@H]2C[C@@H](CN3CCOCC3)C2)ccc1CN1CCCC1 | 7.7 | < 0.95 | 3.5 | 15500 | 2.2 nM | 30 | 0.89 nM | > 120 | 7.7 | ≥ 30 | 30 | < 8 | 0.72 | 0.148 | 740 | 8.2 | 5 | 30 | < 10 | 0.78 | AUC at 96 h [26]: 1240 ng·h/mL; Activity [27]: Non-toxic; Cmax [28]: 0.302 µM; Activity (Rattus norvegicus [29]): Toxic; Papp A→B at 2 µM [30]: > 10 ×10⁻⁶ cm/s; Activity (Rattus norvegicus [31]): Toxic; IC50 [32]: 300000 nM; AUC at 96 h [33]: 17400 ng·h/mL; AUC at 24 h [34]: 1240 ng·h/mL; Activity (Rattus norvegicus [35]): Toxic; Cmax [36]: 3920 ng/mL; Activity (Rattus norvegicus [37]): Toxic; Activity (Canis familiaris [38]): Toxic; Activity (Rattus norvegicus [39]): Non-toxic; MTD at 96 h [40]: ≥ 5 mg/kg; Activity (Canis familiaris [41]): Toxic
CC(=O)N(C)C[C@H]1C[C@H](c2ccc(CN3CCCC3)c(Cl)c2)C1 | 160 | 1.27 | 21 | 4440 | 14 nM and 12.9 nM | 30 | 3.3 nM | > 120 | 9.3 | ≥ 300 | 30 | < 8 |  | 5.13 | 2910 | 53.4 | 6.29 | 30 | < 30 | 0.24 | Activity (Canis familiaris [42]): Toxic; Activity (Canis familiaris [43]): Toxic; AUC at 336 h [44]: ≤ 4440 ng·h/mL; Cmax (in vivo [45]): 3200 ng/mL; Activity (Canis familiaris [46]): Toxic; AUC at 168 h [47]: 2910 ng·h/mL; MED [23]: 245.3 µM; AUC at 168 h [48]: 4780 ng·h/mL
CCNC(=O)[C@H]1C[C@@](F)(c2ccc(CN3CCCC3)c(F)c2)C1 [PF-03654746] | 37 | 1.1 | 8.9 | 189000 | 2.3 nM | 30 | 1.7 nM | > 120 | 9.2 | 30 | 30 | < 5 | 0.7 | 13 | 18900 | 44.7 | 43.5 | 30 | ≥ 15 | 0.66 | AUC at 336 h [49]: 189000 ng·h/mL; Activity (Rattus norvegicus [50]): Toxic; bioavailability (in vivo [6]): 25.9%; Activity (Rattus norvegicus [51]): Toxic; Kp [52]: 2.1; Activity (Canis familiaris [53]): Toxic; Ratio Ki (Homo sapiens [10]): > 1000; Ratio Ki (Homo sapiens [12]): > 1000; Ratio Ki (Homo sapiens [13]): > 1000; MED [23]: 302.4 µM; Activity (Rattus norvegicus [54]): Toxic
